{"source": "patent US11090271B2", "about": "“Soft gelatin capsules containing hydroxypropyl beta cyclodextrin with high stability” (ALTERGON S.A., priority 2017, dated 2021)", "key": {"[1]": {"test": "Storage stability of aqueous diclofenac solutions complexed with HPBCD (colour)", "assay_type": "physicochemical", "protocol": "Occasionally the complexation in cyclodextrin has been carried out to protect the active ingredients from degradation phenomena, however with modest results (International Journal of Photoenergy, 3, 2001, 205-211). […] Finally, storage stability tests were carried out with various aqueous solutions of diclofenac sodium entirely complexed with hydroxypropyl beta ciclodextrin (HPBCD), having the following composition: diclofenac sodium 40.6 mg; HPBCD 177.6 mg; purified water 782.4 mg."}, "[2]": {"test": "Water solubility of the active ingredient at room temperature", "assay_type": "physicochemical", "conditions": "room temperature (20° C.)", "protocol": "In a further embodiment, the active ingredient is a water-soluble one, i.e. it has a water solubility at room temperature (20° C.) higher than 0.1% w/v, preferably higher than 0.5% w/v, or more preferably higher than 1% w/v. […] According to this embodiment, the present invention is characterized as a soft gelatin capsule having inside a fill comprising a water-soluble active ingredient containing nitrogen, wherein the wall of said capsule comprises hydroxypropyl beta cyclodextrin (HPBCD) in an amount being: (a) less than 10% by weight on the weight of the wall and (b) sub-stoichiometric to form an inclusion complex with the active ingredient present in the fill."}}}
{"molecule": "O=C(O)Cc1ccccc1Nc1c(Cl)cccc1Cl", "note": "[diclofenac sodium]", "values": [{"measurement": "colour of the solution", "setting": "[1]; aqueous solution entirely complexed with HPBCD, 18 months at 30° C. and 65% R.H.", "result": "evident amber colour"}]}
{"molecule": "O=C(O)Cc1ccccc1Nc1c(Cl)cccc1Cl", "note": "[diclofenac]", "values": [{"measurement": "colour of the solution", "setting": "[1]; aqueous solution complexed in HPBCD, storage at 25° C.±2° C., 60±5% R.H.", "result": "amber colour"}]}
{"molecule": "diclofenac epolamine [DHEP]", "values": [{"measurement": "water solubility", "setting": "[2]", "result": "about 1.9 % w/v"}]}
